For this experiment, the system named is s.c. Human Mammary Tumor (MX-1). The experiment can be described thus: Efficacy against s.c. MX-1 human mammary tumor in nude mice. The experiment is classed as in vivo. To be noted: 30 mg/kg q7d × 3, iv. The method, then:
Following at least one week of acclimation, tumors were established by injecting 1×10^6 (100 μl) harvested MX-1 mammary tumor cells in a single subcutaneous site, on the left axillary flank region of nude mice. The tumor injection site was observed twice weekly and measured once palpable. The tumor volume for each mouse was determined by measuring two dimensions with calipers and calculated using the formula: tumor volume ((length×width^2)/2). When tumors reached the average volume of approximately 65 mm^3, the mice were divided into their experimental groups, which consists of vehicles (20 m M Sodium PO4 in 0.6% NaCl) controls, Leu-Doxorubicin, compound 3 of Example 1a, compound 5 of Example 2a. The mice were sorted to evenly distribute tumor size, grouped into 6 mice/cage, and ear punched for permanent identification. Drugs were dosed intravenously via the tail vein once per week for three weeks (Qd7×3). Mouse weight and tumor sizes were measured at the beginning of study and twice weekly through week 5.
The overall growth of tumors was calculated as the mean tumor volume at one week following the end of the treatment. A percent treatment over control (T/C) value was also calculated when the control group's median tumor size reached approximately 800-1100 mm^3 and again at one week following treatment. The T/C value in percent is a non-quantitative indication of anti-tumor effectiveness.

Structures are written as SMILES.

Consider `COc1cccc2c1C(=O)c1c(O)c3c(c(O)c1C2=O)C[C@@](O)(C(=O)CO)C[C@@H]3O[C@H]1C[C@H](NC(=O)[C@@H](N)CC(C)C)[C@H](O)[C@H](C)O1` [Leu-Dox, Leucine-Doxorubicin, reference compound], for which the “Tumor Vol. Mean ± SEM (Day 25-28)” value (Day 25-28, mean baseline tumor volume 65 mm^3) is listed as 860 ± 163 mm^3. In addition, the “T/C (%) 1000 mm^3” value (median tumor volume, treatment vs control, when control median reached approximately 1000 mm^3) was found to be 56.5%. In addition, the “% Change Mean ± SEM (Day 25-28)” value (tumor volume change, Day 25-28) amounted to 1373 ± 487%.

These data come from patent US6624142B2, “Trimethyl lock based tetrapartate prodrugs” (Enzon, Inc., priority 1997, dated 2003).
